Patent US8859543B2, “Imidazo[1,2-a]pyrazine derivatives and their use for the prevention or treatment of neurological, psychiatric and metabolic disorders and diseases” (Janssen Pharmaceutica NV, priority 2010, dated 2014)

Target: T1, Rat recombinant PDE10A (rPDE10A2) (Rattus norvegicus, UniProt Q9QYJ6)
T1 construct: made in house; host or cells: Sf9 insect cells, baculovirus
T1 sequence (Q9QYJ6 1-794): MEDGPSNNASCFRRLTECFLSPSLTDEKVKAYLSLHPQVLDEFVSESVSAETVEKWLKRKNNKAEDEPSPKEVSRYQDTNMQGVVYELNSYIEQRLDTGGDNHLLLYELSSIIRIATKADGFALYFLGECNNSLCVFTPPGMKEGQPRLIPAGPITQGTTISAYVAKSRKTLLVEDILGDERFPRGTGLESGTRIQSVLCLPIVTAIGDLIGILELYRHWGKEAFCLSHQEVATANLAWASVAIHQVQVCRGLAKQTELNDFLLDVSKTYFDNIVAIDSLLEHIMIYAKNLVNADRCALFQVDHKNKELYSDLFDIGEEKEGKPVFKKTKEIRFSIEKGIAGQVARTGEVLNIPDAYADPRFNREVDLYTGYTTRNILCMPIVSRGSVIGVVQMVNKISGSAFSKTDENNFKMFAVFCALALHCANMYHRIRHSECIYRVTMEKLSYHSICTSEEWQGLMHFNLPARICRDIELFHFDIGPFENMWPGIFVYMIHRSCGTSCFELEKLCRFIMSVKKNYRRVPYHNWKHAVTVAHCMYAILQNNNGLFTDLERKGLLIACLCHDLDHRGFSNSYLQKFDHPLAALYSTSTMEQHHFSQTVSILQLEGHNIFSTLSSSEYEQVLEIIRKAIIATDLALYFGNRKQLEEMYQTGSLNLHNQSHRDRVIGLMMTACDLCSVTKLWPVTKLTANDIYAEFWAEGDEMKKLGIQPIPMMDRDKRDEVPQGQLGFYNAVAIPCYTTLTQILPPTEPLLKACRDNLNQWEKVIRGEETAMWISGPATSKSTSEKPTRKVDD
Assay: In vitro assay PDE10A (SPA, 3H-cAMP)
Type: biochemical
Settings: pIC50 corresponds to the -log IC50 expressed in mol/L; read-out: PDE10A2 pIC50 (converted)
Method: Rat recombinant PDE10A (rPDE10A2) was expressed in Sf9 cells using a recombinant rPDE10A baculovirus construct. Cells were harvested after 48 h of infection and the rPDE10A protein was purified by metal chelate chromatography on Ni-sepharose 6FF. Tested compounds were dissolved and diluted in 100% DMSO to a concentration 100 fold of the final concentration in the assay. Compound dilutions (0.4 μl) were added in 384 well plates to 20 μl of incubation buffer (50 mM Tris pH 7.8, 8.3 mM MgCl2, 1.7 mM EGTA). 10 μl of rPDE10A enzyme in incubation buffer was added and the reaction was started by addition of 10 μl substrate to a final concentration of 60 nM cAMP and 0.008 μCi ^3H-cAMP. The reaction was incubated for 60 min. at RT. […] After sedimentation of the beads during 30 min. the radioactivity was measured in a Perkin Elmer Topcount scintillation counter and results were expressed as cpm. For blank values the enzyme was omitted from the reaction and replaced by incubation buffer. Control values were obtained by addition of a final concentration of 1% DMSO instead of compound. The same assay principle is applied for the measurement of the affinity of the compound for other members of the PDE family with appropriate modifications in incubation buffer, substrate concentration, incubation time and stop solution.

Row | Compound | IC50 [nM]
1 | Cc1nc2c(N3CCOCC3)nccn2c1-c1cc[nH]c1 [compound 43, 2-Methyl-8-morpholin-4-yl-3-(1H-pyrrol-3-yl)-imidazo[1,2-a]pyrazine] | 871
2 | Cc1nc2c(N3CCOCC3)nccn2c1-c1cnn(C2CCOC2)c1 (single isomer, unassigned) [compound 88] | 132
3 | Cc1nc2c(N3CCOCC3)nccn2c1-c1cnn(CC2CCCCO2)c1 (centres unmarked) [compound 73] | 95.5
4 | COCCn1cc(-c2c(C)nc3c(N4CCOCC4)nc(CCC(F)(F)F)cn23)cn1 [compound 39, 3-[1-(2-Methoxy-ethyl)-1H-pyrazol-4-yl]-2-methyl-8-morpholin-4-yl-6-(3,3,3-trifluoro-propyl)-imidazo[1,2-a]pyrazine] | 933
5 | COC(Cn1cc(-c2c(C)nc3c(N4CCOCC4)nccn23)cn1)C(C)C (single isomer, unassigned) [compound 54] | 56.2
6 | Cc1nc2c(N3CCOCC3)nccn2c1-c1cnn(CC2CC2(F)F)c1 (single isomer, unassigned) [compound 64] | 83.2
7 | COCCn1cc(-c2c(C)nc3c(N4CCOCC4)nc(C4CC4)cn23)cn1 [compound 37, 6-Cyclopropyl-3-[1-(2-methoxy-ethyl)-1H-pyrazol-4-yl]-2-methyl-8-morpholin-4-yl-imidazo[1,2-a]pyrazine] | 490
8 | COc1ncc(-c2c(C)nc3c(N4CCOCC4)nccn23)cn1 [compound 32, 3-(2-Methoxy-pyrimidin-5-yl)-2-methyl-8-morpholin-4-yl-imidazo[1,2-a]pyrazine] | 479
9 | Cc1nc2c(N3CCOCC3)nccn2c1-c1cnn(CC2CC2(F)F)c1 (single isomer, unassigned) [compound 47] | 28.2
10 | Cc1nc2c(N3CCOCC3)nccn2c1-c1cnn(C2CCOC2)c1 (single isomer, unassigned) [compound 109] | 178
11 | COC(C)(C)COc1ccc(-c2c(C)nc3c(-c4ccncc4)nccn23)cn1 [compound 2, 3-[6-(2-Methoxy-2-methyl-propoxy)-pyridin-3-yl]-2-methyl-8-pyridin-4-yl-imidazo[1,2-a]pyrazine] | 708

The next lines start with the values.

Row | IC50 [nM] | Compound
12 | 85.1 | CCc1ccc(-c2c(C3CC3)nc3c(N4CCOCC4)nccn23)cn1 [compound 66]
13 | 120 | Cc1nc2c(N3CCOCC3)nccn2c1-c1cnc(N2CCOCC2)nc1 [compound 85]
14 | 550 | Cc1cc(-c2c(C)nc3c(N4CCOCC4)nccn23)ccn1 [compound 133]
15 | 112 | Cc1nc2c(-c3ccncc3)nccn2c1-c1cnn(CC2CCCCO2)c1 (single isomer, unassigned) [compound 80]
16 | 123 | Cc1nc2c(N3CCOCC3)nccn2c1-c1cnn(CCCF)c1 [compound 86]
17 | 457 | Cc1nc2c(N3CCOCC3)nccn2c1-c1cnn(CCOC(C)C)c1 [compound 127]
18 | 75.9 | COC(C)(C)Cc1ccc(-c2c(C3CC3)nc3c(N4CCOCC4)nccn23)cn1 [compound 60]
19 | 309 | CC(=O)Cn1cc(-c2c(C)nc3c(N4CCOCC4)nccn23)cn1 [compound 117]
20 | 776 | Cc1nc2c(N3CCOCC3)nccn2c1-c1ccc(-c2ccc(F)cc2)nc1 [compound 139]
21 | 631 | COCCn1cc(-c2c(OC)nc3c(N4CCOCC4)nccn23)cn1 [compound 137]
22 | 537 | COCCOc1ccc(-c2c(C)nc3c(-c4ccncc4)nccn23)cn1 [compound 132]
23 | 145 | Cc1nc2c(N3CCOCC3)nccn2c1-c1cnn(CC(=O)C2CC2)c1 [compound 98]
24 | 537 | COCCn1cc(-c2c(OC)nc3c(N4CCCC4)nccn23)cn1 [compound 131]
25 | 457 | Cc1nc2c(-c3ccncc3)nccn2c1-c1cnn(CCN2CCOCC2)c1 [compound 126]
26 | 135 | CCOCCn1cc(-c2c(C)nc3c(N4CCOCC4)nccn23)cn1 [compound 93]
27 | 100 | COC[C@H](C)n1cc(-c2c(C)nc3c(N4CCOCC4)nccn23)cn1 [compound 75]
28 | 135 | Cc1nc2c(-c3ccncc3)nccn2c1-c1cnn(CC2CCCCO2)c1 (single isomer, unassigned) [compound 92]
29 | 871 | Cc1nc2c(N3CCOCC3)nccn2c1-c1ccc(CCN2CCCC2)nc1 [compound 140]
30 | 501 | Cc1nc2c(-c3ccncc3)nccn2c1-c1ccc(OCC(F)(F)F)nc1 [compound 129]
31 | 468 | CCOCCn1cc(-c2c(C)nc3c(-c4ccncc4)nccn23)cn1 [compound 128]
32 | 74.1 | COC(Cn1cc(-c2c(C)nc3c(N4CCOCC4)nccn23)cn1)C(C)C (single isomer, unassigned) [compound 59]

System: apomorphine-induced stereotypy
Assay: Apomorphine-induced stereotypy in rats (APO)
Type: in vivo
Settings: Rattus norvegicus, po; * compound was not soluble and was tested orally as a suspension; read-out: APO ED50
Method: Apomorphine-Induced Stereotypy in Rats (APO)
Apomorphine (1.0 mg/kg, i.v.)-induced stereotypy (compulsive sniffing, licking, chewing) was scored every 5 min. over the first hour after injection of apomorphine, following a 1 hour interval pre-treatment with the test compound. The score system was: (3) pronounced, (2) moderate, (1) slight, and (O) absent.

Row | Compound | ED50 [mg/kg]
33 | COCCOc1ccc(-c2c(C)nc3c(N4CCOCC4)nccn23)cn1 [compound 1, 3-[6-(2-Methoxy-ethoxy)-pyridin-3-yl]-2-methyl-8-morpholin-4-yl-imidazo[1,2-a]pyrazine] | 0.8

Same assay, conditions: Rattus norvegicus, read-out: APO ED50

Row | Compound | ED50 [mg/kg]
34 | COCCc1ccc(-c2c(C3CC3)nc3c(N4CCOCC4)nccn23)cn1 [compound 10, 2-Cyclopropyl-3-[6-(2-methoxy-ethyl)-pyridin-3-yl]-8-morpholin-4-yl-imidazo[1,2-a]pyrazine] | 1.2
35 | COCCCc1ccc(-c2c(C)nc3c(N4CCOCC4)nccn23)cn1 [compound 6, 3-[6-(3-Methoxy-propyl)-pyridin-3-yl]-2-methyl-8-morpholin-4-yl-imidazo[1,2-a]pyrazine] | ≤ 2.5
36 | Cc1nc2c(N3CCOCC3)nccn2c1-c1ccc(C(C)C)nc1 [compound 107] | 5
37 | Cc1nc2c(N3CCOCC3)nccn2c1-c1coc(CC(C)C)n1 [compound 41, 3-(2-Isobutyl-oxazol-4-yl)-2-methyl-8-morpholin-4-yl-imidazo[1,2-a]pyrazine] | 5
38 | CCc1nc2c(N3CCOCC3)nccn2c1-c1cnn(CCOC)c1 [compound 100] | 5
39 | CCOCCc1ccc(-c2c(C)nc3c(N4CCOCC4)nccn23)cn1 [compound 20, 3-[6-(2-Ethoxy-ethyl)-pyridin-3-yl]-2-methyl-8-morpholin-4-yl-imidazo[1,2-a]pyrazine] | 1.2
40 | COC(C)(C)Cc1ccc(-c2c(C)nc3c(N4CCOCC4)nccn23)cn1 [compound 7, 3-[6-(2-Methoxy-2-methyl-propyl)-pyridin-3-yl]-2-methyl-8-morpholin-4-yl-imidazo[1,2-a]pyrazine] | 1.2

Same assay, conditions: Rattus norvegicus; not active at 2.5 or at 10 mg/kg, not further tested; read-out: APO ED50 (not active at threshold dose)

Row | Compound | ED50 [mg/kg]
41 | Cc1nc2c(N3CCOCC3)nccn2c1-c1ccc(N2CCNCC2)nc1 [compound 23, 2-Methyl-8-morpholin-4-yl-3-(6-piperazin-1-yl-pyridin-3-yl)-imidazo[1,2-a]pyrazine] | > 2.5
42 | CCc1ccc(-c2c(C)nc3c(N4CCOCC4)nccn23)cn1 [compound 26, 3-(6-Ethyl-pyridin-3-yl)-2-methyl-8-morpholin-4-yl-imidazo[1,2-a]pyrazine] | > 2.5
43 | Cc1nc2c(N3CCOCC3)nccn2c1-c1ccc(CCO)nc1 [compound 18, 2-[5-(2-Methyl-8-morpholin-4-yl-imidazo[1,2-a]pyrazin-3-yl)-pyridin-2-yl]-ethanol] | > 2.5
44 | Cc1nc2c(N3CCOCC3)nccn2c1-c1ccc(N2CCCC2)nc1 [compound 123] | > 2.5
45 | CCOCc1ccc(-c2c(C)nc3c(N4CCOCC4)nccn23)cn1 [compound 5, 3-(6-Ethoxymethyl-pyridin-3-yl)-2-methyl-8-morpholin-4-yl-imidazo[1,2-a]pyrazine] | > 2.5
46 | Cc1nc2c(N3CCOCC3)nccn2c1-c1ccc(NC(C)C)nc1 [compound 103] | > 2.5
47 | COCCc1ccc(-c2c(C)nc3c(N4CCCC4)nccn23)cn1 [compound 124] | > 2.5
